Here are results for 56 molecules from the RepoRT retention time repository (doi:10.1016/j.chroma.2019.01.023).

What all share (conditions): stereoisomer not certain
The nature of data set [1]: HILIC, Merck SeQuant ZIC-pHILIC, 150 × 2.1 mm, 5 µm, 40 °C, 0.3 mL/min, estimated dead time 1.1 min; A: acetonitrile; B: water + 2.8 mM ammonium formate, pH 9; gradient (min/%B) 0/5 1/5 10/51 13/51 13.1/5 20/5.
The nature of data set [2]: RP, Phenomenex Kinetex C18, 150 × 2.1 mm, 1.7 µm, 30 °C, 0.3 mL/min, estimated dead time 1.1 min; A: water + 0.1% formic acid, pH 3; B: acetonitrile + 0.1% formic acid, pH 3; gradient (min/%B) 0/2 14/100 17/100 17.1/2 25/2.
A short description of data set [3]: HILIC, Waters ACQUITY UPLC BEH Amide, 150 × 2.1 mm, 1.7 µm, 40 °C, 0.5 mL/min, estimated dead time 0.66 min; A: 5% water + 95% acetonitrile; B: 70% water + 30% acetonitrile + 10 mM ammonium formate, pH 6.5; gradient (min/%B) 0/0 2/0 20/70 23/70 24/0 31/0.

SMILES strings stand for the structures.

Consider `O=C(O)c1ccc2ccccc2c1[O-]` [1-HYDROXY-2-NAPHTHOATE], for which the LC retention time in data set [1] was 1.49 min; in data set [2], 9.28 min.
On to `O=C(O)c1cccc(O)c1[O-]` [2,3-DIHYDROXYBENZOATE], for which the results for the LC retention time in data set [1] and in data set [2] were 5.74 min and 4.92 min, respectively.
For `O=C(O)c1cc(O)ccc1[O-]` [2,5-DIHYDROXYBENZOATE], the LC retention time in data set [1] was 6.29 min; in data set [2], 4.46 min.
Regarding `O=c1cccc(O)[nH]1` [2,6-DIHYDROXYPYRIDINE], the LC retention time was 6.67 min in data set [1], 1.95 min in data set [2] and 4.81 min in data set [3].
For `Nc1ccccc1O` [2-AMINOPHENOL] the same measures were 7.38 min, 1.52 min and 0.87 min.
For `CSCCC(O)C(=O)O` (stereo not drawn) [2-HYDROXY-4-(METHYLTHIO)BUTANOATE] the same measures were 4.59 min, 3.82 min and 1.29 min.
With `O=C(O)Cc1ccccc1O` [2-HYDROXYPHENYLACETATE], the LC retention time in data set [2] is 4.46 min; in data set [3] it was 0.9 min.
Turning to `CC(CCC(=O)O)C(=O)O` (stereo not drawn) [2-METHYLGLUTARATE], the LC retention time in data set [1] is 7.37 min; in data set [2] it was 3.85 min; in data set [3] it was 5.2 min.
As for `O=C(O)C(O)c1ccc(O)c(O)c1` (stereo not drawn) [3,4 DIHYDROXYMANDELATE], the LC retention time in data set [1] is 8.57 min; in data set [2] it was 1.7 min.
Turning to `O=C(O)Cc1ccc(O)c(O)c1` [3,4-DIHYDROXYPHENYLACETATE], the LC retention time in data set [1] is 7.81 min; in data set [2], 3.93 min.
In the case of `OCC(O)c1ccc(O)c(O)c1` (stereo not drawn) [3,4-DIHYDROXYPHENYLGLYCOL], the LC retention time in data set [1] was 6.22 min; in data set [2], 1.82 min.
As for `O=C([O-])CCc1ccccc1O` [3-(2-HYDROXYPHENYL)PROPANOATE], the values for the LC retention time in data set [1], in data set [2] and in data set [3] were 2.12 min, 6.02 min and 1.02 min, respectively.
As for `Nc1cc(C(=O)O)ccc1[O-]` [3-AMINO-4-HYDROXYBENZOATE], the LC retention time in data set [1] is 7.39 min; in data set [2], 1.52 min; in data set [3], 1.84 min.
As for `Nc1c([O-])cccc1C(=O)O` [3-HYDROXYANTHRANILATE], the figures for the LC retention time in data set [1], in data set [2] and in data set [3] were 6.24 min, 3.68 min and 1.39 min, respectively.
As to `O=C(O)c1cccc([O-])c1` [3-HYDROXYBENZOATE], the results for the LC retention time in data set [1] and in data set [2] were 6.39 min and 4.87 min, respectively.
As to `O=C(O)Cc1cccc(O)c1` [3-HYDROXYPHENYLACETATE], the LC retention time in data set [1] is 5.88 min; in data set [2], 4.82 min.
Taken in the same sequence, the figures for `COc1cc(C(O)C(=O)O)ccc1O` (stereo not drawn) [3-METHOXY-4-HYDROXYMANDELATE] were 6.9 min and 2.94 min.
For the molecule `CCC(C)C(=O)C(=O)[O-]` (stereo not drawn) [3-METHYL-2-OXOVALERATE], the LC retention time in data set [2] is 4.14 min; in data set [3], 1.83 min.
For `NC(N)=NCCCC(=O)O` [4-GUANIDINOBUTANOATE] the same measures were 1.39 min and 10.1 min.
As to `Nc1ncnc2c1ncn2C1OC(COP(=O)(O)O)C(O)C1O` (stereo not drawn) [ADENOSINE-MONOPHOSPHATE], the results for the LC retention time in data set [1] and in data set [2] were 8.23 min and 1.41 min, respectively.
Taken in the same sequence, the figures for `NC(=O)c1ncn(C2OC(COP(=O)(O)O)C(O)C2O)c1N` (stereo not drawn) [AICAR] were 8.82 min and 1.38 min.
For `Nc1ccccc1S(=O)(=O)O` [ANILINE-2-SULFONATE], the LC retention time in data set [1] was 5.89 min; in data set [2], 2.04 min.
Turning to `NC(=O)c1ccc[n+](C2OC(COP(=O)(O)OP(=O)([O-])OCC3OC(n4cnc5c(N)ncnc54)C(O)C3O)C(O)C2O)c1` (stereo not drawn) [BETA-NICOTINAMIDE ADENINE DINUCLEOTIDE], the LC retention time in data set [1] is 8.52 min; in data set [2], 1.4 min.
With `C=CC1=C(C)C(C=c2[nH]c(=Cc3[nH]c(C=C4NC(=O)C(C)=C4C=C)c(C)c3CCC(=O)O)c(CCC(=O)O)c2C)=NC1=O` [BILIVERDIN], the values for the LC retention time in data set [2] and in data set [3] were 9.08 min and 1.13 min, respectively.
`CC(O)(CC(=O)O)C(=O)O` (stereo not drawn) [CITRAMALATE]: the LC retention time in data set [1] is 8.8 min; in data set [2], 1.94 min.
For `O=C(O)CC(O)(CC(=O)O)C(=O)O` [CITRATE] the same measures were 10.2 min and 1.57 min.
Turning to `Nc1ncnc2c1ncn2C1CC(O)C(COP(=O)(O)O)O1` (stereo not drawn) [DEOXYADENOSINE MONOPHOSPHATE], the LC retention time was 7.95 min in data set [1] and 1.55 min in data set [2].
Taken in the same sequence, the figures for `Nc1ccn(C2CC(O)C(COP(=O)(O)O)O2)c(=O)n1` (stereo not drawn) [DEOXYCYTIDINE MONOPHOSPHATE] were 8.61 min and 1.4 min.
For `Nc1nc2c(ncn2C2CC(O)C(COP(=O)(O)O)O2)c(=O)[nH]1` (stereo not drawn) [DEOXYGUANOSINE-MONOPHOSPHATE], the LC retention time was 8.92 min in data set [1] and 1.67 min in data set [2].
Consider `O=c1ccn(C2CC(O)C(COP(=O)(O)O)O2)c(=O)[nH]1` (stereo not drawn) [DEOXYURIDINE-MONOPHOSPHATE], for which the LC retention time is 8.2 min in data set [1] and 1.41 min in data set [2].
Consider `NCCc1ccc(O)c(O)c1` [DOPAMINE], for which the values for the LC retention time in data set [2] and in data set [3] were 1.62 min and 8.68 min, respectively.
`Cc1cn(C2CC(O)C(COP(=O)(O)OP(=O)(O)OC3OC(CO)C(O)C(O)C3O)O2)c(=O)[nH]c1=O` [DTDP-D-GLUCOSE]: the LC retention time is 8.93 min in data set [1] and 1.52 min in data set [2].
For `O=C(O)C=CC(=O)O` [FUMARATE], the LC retention time in data set [1] is 9.5 min; in data set [2], 1.88 min.
With `O=C(O)CCCC(=O)O` [GLUTARATE], the LC retention time in data set [2] is 2.92 min; in data set [3], 2 min.
Taken in the same sequence, the figures for `C[N+](C)(C)CC(CC(=O)[O-])OC(=O)CCCC(=O)O` (stereo not drawn) [GLUTARYLCARNITINE] were 2.56 min and 11.9 min.
Take `NC(CCC(=O)NC(CS)C(=O)NCC(=O)O)C(=O)O` (stereo not drawn) [GLUTATHIONE REDUCED]: the results for the LC retention time in data set [1] and in data set [2] were 8.59 min and 1.46 min, respectively.
For `Nc1nc2c(ncn2C2OC(COP(=O)(O)O)C(O)C2O)c(=O)[nH]1` (stereo not drawn) [GUANOSINE MONOPHOSPHATE] the same measures were 9.41 min and 1.41 min.
Taken in the same sequence, the figures for `Oc1ccc(O)cc1` [HYDROQUINONE] were 6.29 min and 4.46 min.
Taken in the same sequence, the figures for `CCC(C)C(N)C(=O)O` (stereo not drawn) [ISOLEUCINE] were 7.18 min and 1.9 min.
Turning to `CC(CCC(=O)O)C1CCC2C3CCC4CC(O)CCC4(C)C3CCC12C` (stereo not drawn) [LITHOCHOLATE], the LC retention time is 12.8 min in data set [2] and 0.84 min in data set [3].
Consider `O=C([O-])C=CC(=O)[O-]` [MALEATE], for which the figures for the LC retention time in data set [1] and in data set [2] were 2.45 min and 1.53 min, respectively.
Taken in the same sequence, the figures for `O=C([O-])C(O)c1ccccc1` (stereo not drawn) [MANDELATE] were 4.83 min and 4.45 min.
With `CC1(O)CCOC(=O)C1` (stereo not drawn) [MEVALOLACTONE], the LC retention time is 2.04 min in data set [2] and 0.89 min in data set [3].
Taken in the same sequence, the figures for `CC(=O)NC(C)C(=O)O` (stereo not drawn) [N-ACETYLALANINE] were 1.97 min and 4.75 min.
Taken in the same sequence, the figures for `CC(=O)NC(CS)C(=O)O` (stereo not drawn) [N-ACETYLCYSTEINE] were 2.62 min and 1.88 min.
Take `O=C(O)CCCCCCCCCCCO` [OMEGA-HYDROXYDODECANOATE]: the LC retention time in data set [2] was 8.62 min; in data set [3], 0.84 min.
Regarding `CCC(NC(=O)CCC([NH3+])C(=O)[O-])C(=O)NCC(=O)[O-]` (stereo not drawn) [OPHTHALMATE], the LC retention time in data set [1] is 8.32 min; in data set [2], 1.58 min.
On to `O=C(O)Cc1ccc(O)cc1` [P-HYDROXYPHENYLACETATE], for which the figures for the LC retention time in data set [1] and in data set [2] were 5.76 min and 4.59 min, respectively.
As for `O=C(O)C(=O)Cc1ccccc1` [PHENYLPYRUVATE], the values for the LC retention time in data set [1] and in data set [2] were 5.27 min and 4.94 min, respectively.
Regarding `Cc1ncc(COP(=O)(O)O)c(C=O)c1O` [PYRIDOXAL-PHOSPHATE], in data set [2], the LC retention time is 1.5 min.
Consider `Oc1ccccc1O` [PYROCATECHOL], for which the LC retention time in data set [1] is 8.04 min; in data set [2], 3.77 min.
As to `O=C(C=Cc1ccc(O)c(O)c1)OC(Cc1ccc(O)c(O)c1)C(=O)O` (stereo not drawn) [ROSMARINATE], the LC retention time in data set [1] was 7.55 min; in data set [2], 6.25 min.
For `Nc1ncnc2c1ncn2C1OC(CSCCC([NH3+])C(=O)[O-])C(O)C1O` (stereo not drawn) [S-ADENOSYLHOMOCYSTEINE] the same measures were 8.51 min and 1.97 min.
Regarding `CC=CC=CC(=O)[O-]` [SORBATE], the results for the LC retention time in data set [1] and in data set [2] were 1.73 min and 4.51 min, respectively.
With `O=C(O)CCC(=O)O` [SUCCINATE], the results for the LC retention time in data set [2] and in data set [3] were 1.95 min and 3.9 min, respectively.
`O=c1[nH]c(=O)c2ncn(C3OC(COP(=O)(O)O)C(O)C3O)c2[nH]1` (stereo not drawn) [XANTHOSINE-MONOPHOSPHATE]: the LC retention time in data set [1] was 10.2 min; in data set [2], 1.45 min.
